According to US20250235499A1, “ANTI-OVARIAN CANCER PHARMACEUTICAL COMPOSITION AND ACTION TARGET THEREOF” (Zhejiang Chinese Medical University, priority 2024, published 2025):

Columns and labels:
Type in all cases: cell-based, human
Hey ovarian cancer cells [1] = experiment: CCK-8 detection of proliferation of an ovarian cancer cell; conditions: CA 50-800 μmol/L, BDMC 3.125-50 μmol/L, 24 and 48 hours, concentration- and time-dependent
Experimental: (§1) SKOV3 and Hey ovarian cancer cells in logarithmic growth phase were digested with 0.1% trypsin to prepare a cell suspension, and the cell concentration was quantified at 10^4 cells/mL. 200 μL of the cell suspension each well was inoculated into a 96 well plate, and 200 μL of PBS was added to each well of the outer circle to eliminate edge effects. The 96 well plate was placed in a 37° C. incubator containing 5% CO2 for 24 hours each. After the cells adhered to the wall, the culture medium was discarded, and the cells were washed three times with PBS buffer. New culture medium containing different concentrations of CA (0, 50, 100, 200, 400, and 800 μmol/L) and BDMC ([…]) were added, with 6 parallel wells in each group. After adding a pharmaceutical, cultivation was further conducted, the 96 well plate was taken out at 24 hours and 48 hours, the original culture medium was discarded, the cells were washed three times with PBS, 200 μL of prepared serum-free culture medium containing 10% CCK-8 was added, and incubated at 37° C. for 1 hour. A well with drug concentration of 0 μmol/L was used as a control well and a well without cells and only added with a CCK-8 solution as a blank well. An absorbance at a wavelength of 450 nm was measured using a microplate reader, and an IC50 value was calculated using GraphPad Prism 8 software. […]

[2] = tested on: SKOV3 ovarian cancer cells; experiment: as above; conditions: CA 50-800 μmol/L, BDMC 3.125-50 μmol/L, 24 and 48 hours, concentration- and time-dependent
Experimental: as §1

Hey ovarian cancer cells [3] = experiment: Colony formation with MCM2 knockdown or overexpression
Experimental: (§2) SKOV3 and Hey ovarian cancer cells in logarithmic growth phase were knocked down with MCM2 (Control group, sh-NC group, sh-MCM2 group) and overexpressed with MCM2 (Control group, OE-NC group, OE-MCM2 group). The original culture medium was discarded, washed with PBS buffer, and digested with 0.1% trypsin. A corresponding culture medium was added to prepare a cell suspension. Cells were counted using a hemocytometer and a cell concentration was quantified at 10^3 cells/mL. 1500 μL of each well was inoculated into a 6 well plate, with 3 parallel wells in each group, and incubated in a 37° C. incubator containing 5% CO2 for 12 days. The medium was changed every three days. After the cultivation time was over, the six well plate was taken out, and the original culture medium was poured out. An appropriate amount of 4% paraformaldehyde was added to each well and fixed for 30 minutes. The plate was washed twice with a PBS buffer after pouring out the paraformaldehyde, an appropriate amount of 1% crystal violet solution was added for staining for 10 minutes, the crystal violet solution was poured out, and the plate was washed twice with PBS. Photos were taken, and the number of cell clones formed was counted. After knocking down MCM2 on the SKOV3 and Hey ovarian cancer cells and intervening with CA, BDMC, and combination administration, the results were shown in FIGS. 17A-17B. In FIGS. 17A-17B, A represented the formation of SKOV3 cell clones; and B represented the formation of Hey cell clones. Compared with the sh-NC group, #P<0.05, ##P<0.01; compared with the sh-NC+CA+BDMC group, &P<0.05, &&P<0.01; and ** P<0.01. In FIGS. 18A-18B, A represented the formation of SKOV3 cell clones; and B represented the formation of Hey cell clones. Compared with the OE-NC group, #P<0.05, ##P<0.01; compared with the OE-NC+CA+BDMC group, &P<0.05, &&P<0.01; and *P<0.05; and compared with the OE-MCM2+CA+BDMC group, ΔP<0.05, ΔΔP<0.01; and *P<0.05, ** P<0.01.

[4] = tested on: SKOV3 ovarian cancer cells; experiment: as above
Experimental: as §2

Hey ovarian cancer cells [5] = experiment: Cell cycle by flow cytometry (PI) with MCM2 knockdown or overexpression
Experimental: (§3) SKOV3 and Hey ovarian cancer cells in logarithmic growth phase were knocked down with MCM2 (Control group, sh-NC group, sh-MCM2 group) and overexpressed with MCM2 (Control group, OE-NC group, OE-MCM2 group). The original culture medium was discarded, washed with PBS buffer, and digested with 0.1% trypsin. A corresponding culture medium was added to prepare a cell suspension. Cells were counted using a hemocytometer and a cell concentration was quantified at 5×10^4 cells/mL. 1500 μL of each well was inoculated into a 6 well plate, with 3 parallel wells in each group, and incubated in a 37° C. incubator containing 5% CO2 for 24 hours. After the cultivation time was over, the six well plate was taken out and aspirated the original culture medium from the wells for later use. The PBS buffer was added to gently wash the cells three times. 500 μL of 0.1% trypsin was added to each well to wait for the cells to be blown off with a pipette, then the original culture medium from the wells was added to terminate digestion. A pipette was used to gently blow off all the cells on the wall of the six well plate. The cell suspension was aspirated, transferred to a centrifuge tube, and centrifuged at 4° C. and 1000 rpm for 5 minutes. The supernatant was discarded, and 1 mL of pre-cooled PBS buffer was added to gently resuspend the cells, and transferred to a 1.5 mL sterile centrifuge tube. The mixture was centrifuged at 4° C. and 1000 rpm for 5 minutes, the supernatant was discarded, and the bottom of the centrifuge tube was gently tapped to disperse the cells. 1 mL of pre-cooled 70% ethanol was added, blown and mixed well to form a cell suspension, and placed in a refrigerator at 4° C. for 24 hours. After fixation, a water bath kettle was opened in advance, the temperature was set to 37° C., the centrifugation was performed for 5 minutes at 4° C. and 1000 rpm, and the supernatant was discarded. 1 mL of pre-cooled PBS buffer was added and gently resuspended to wash the cells. The mixture was centrifuged at 4° C. and 1000 rpm for 5 minutes, the supernatant was discarded, and the bottom of the centrifuge tube was gently tapped to disperse the cells. 500 μL of PI staining working solution containing RNase was added to each cell sample to be tested, and placed in a 37° C. dark water bath for 30 minutes. A flow cytometer was used to detect red fluorescence at an excitation wavelength of 488 nm, while also measuring light scattering. A modfit 3.2 version was used for cell DNA cycle analysis.

[6] = tested on: SKOV3 ovarian cancer cells; experiment: as above
Experimental: as §3

[7] = Hey OE-MCM2 cells (MCM2 overexpression), vs OE-MCM2 group
[8] = Hey OE-NC cells (empty vector), vs OE-NC group
[9] = Hey sh-MCM2 cells (MCM2 knockdown), vs sh-MCM2 group
[10] = Hey sh-NC cells (empty vector), vs sh-NC group
[11] = SKOV3 OE-MCM2 cells (MCM2 overexpression), vs OE-MCM2 group
[12] = SKOV3 OE-NC cells (empty vector), vs OE-NC group
[13] = SKOV3 sh-MCM2 cells (MCM2 knockdown), vs sh-MCM2 group
[14] = SKOV3 sh-NC cells (empty vector), vs sh-NC group

## COc1ccc(-c2coc3cc(O)ccc3c2=O)cc1O [CA, calycosin]
Hey ovarian cancer cells [1]
  effect on proliferation: proliferative inhibitory effects
[2]
  effect on proliferation: proliferative inhibitory effects
Hey ovarian cancer cells [3]; [7]
  number of plaques formed by cloning: no significant change
Hey ovarian cancer cells [3]; [8]
  number of plaques formed by cloning: significantly reduced
Hey ovarian cancer cells [3]; [9]
  number of plaques formed by cloning: no significant change
Hey ovarian cancer cells [3]; [10]
  number of plaques formed by cloning: significantly reduced
[4]; [11]
  number of plaques formed by cloning: no significant change
[4]; [12]
  number of plaques formed by cloning: significantly reduced
[4]; [13]
  number of plaques formed by cloning: no significant change
[4]; [14]
  number of plaques formed by cloning: significantly reduced
Hey ovarian cancer cells [5]; [7]
  percentage of G0/G1 phase cells: no significant change
Hey ovarian cancer cells [5]; [8]
  percentage of G0/G1 phase cells: significantly increased
Hey ovarian cancer cells [5]; [9]
  percentage of G0/G1 phase cells: no significant change
Hey ovarian cancer cells [5]; [10]
  percentage of G0/G1 phase cells: significantly increased
[6]; [11]
  percentage of G0/G1 phase cells: no significant change
[6]; [12]
  percentage of G0/G1 phase cells: significantly increased
[6]; [13]
  percentage of G0/G1 phase cells: no significant change
[6]; [14]
  percentage of G0/G1 phase cells: significantly increased
